Among the data in US20120121591A1 (priority 2009, published 2012) are IC50 values, retold here.

Common to all, as to type: cell-based
For test [1], the system named is IL-2 secretion from T cells in human whole blood. Particulars: read-out: WB (IL-2) IC50 (nM, Avg).
The target in the next test is hKv1.3 (Homo sapiens, UniProt P22001). As to the kind of experiment: cell-based. Conditions: Kv1.3 (IWQ) IC50 (nM, Avg).
Test [2] concerns IFN-g secretion from T cells in human whole blood. Particulars: read-out: WB (IFNg) IC50 (nM, Avg).

hKv1.3, sequence (P22001 whole entry): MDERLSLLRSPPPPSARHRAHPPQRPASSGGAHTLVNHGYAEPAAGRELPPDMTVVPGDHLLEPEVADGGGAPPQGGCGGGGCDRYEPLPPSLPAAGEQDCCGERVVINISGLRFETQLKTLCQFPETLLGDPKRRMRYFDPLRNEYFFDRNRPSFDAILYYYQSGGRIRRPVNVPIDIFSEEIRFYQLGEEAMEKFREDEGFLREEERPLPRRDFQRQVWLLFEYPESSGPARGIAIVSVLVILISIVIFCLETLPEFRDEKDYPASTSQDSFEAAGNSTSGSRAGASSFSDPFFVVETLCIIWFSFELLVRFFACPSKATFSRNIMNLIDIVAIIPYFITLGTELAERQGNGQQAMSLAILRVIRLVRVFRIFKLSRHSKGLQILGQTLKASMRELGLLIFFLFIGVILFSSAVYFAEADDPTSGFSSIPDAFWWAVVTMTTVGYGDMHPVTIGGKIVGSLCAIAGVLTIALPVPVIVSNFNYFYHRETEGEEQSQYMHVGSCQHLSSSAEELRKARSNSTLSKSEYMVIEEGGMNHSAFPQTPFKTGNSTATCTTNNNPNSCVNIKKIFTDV

Turning to `CC[C@H](C)[C@@H]1NC(=O)[C@@H](NC(=O)[C@H](CO)NC(=O)[C@@H](N)CCCNC(=N)N)CSSC[C@@H](C(=O)O)NC(=O)[C@H]([C@@H](C)O)NC(=O)CNC(=O)[C@@H]2CSSC[C@@H]3NC(=O)[C@H](CCC(N)=O)NC(=O)[C@H](Cc4ccccc4)NC(=O)[C@H](C)NC(=O)[C@H]([C@@H](C)O)NC(=O)[C@H](CSSC[C@H](NC(=O)[C@H](Cc4ccccc4)NC(=O)[C@H](CO)NC(=O)[C@H](CC(C)C)NC(=O)[C@H](CCCNC(=N)N)NC(=O)[C@H](Cc4ccc(O)cc4)NC(=O)[C@H](CCCCN)NC(=O)[C@H](CCSC)NC(=O)[C@H](CCCCN)NC(=O)[C@H](Cc4c[nH]cn4)NC(=O)[C@H](CCCCN)NC3=O)C(=O)N[C@@H](CCCNC(=N)N)C(=O)N[C@@H](CCCCN)C(=O)N[C@@H]([C@@H](C)O)C(=O)N2)NC(=O)[C@H](CCCNC(=N)N)NC(=O)[C@H](CO)NC(=O)[C@H](CCCCN)NC(=O)[C@@H]2CCCN2C(=O)[C@H]([C@@H](C)CC)NC(=O)[C@H]([C@@H](C)O)NC(=O)[C@H](CC(=O)O)NC1=O` [[Lys20]ShK], the IC50 in test [1] turned out to be 0.108 nM; at hKv1.3, 1.33 nM; in test [2], 0.192 nM.

Regarding `CC[C@H](C)[C@@H]1NC(=O)[C@@H](NC(=O)[C@H](CO)NC(=O)[C@@H](N)CCCNC(=N)N)CSSC[C@@H](C(=O)O)NC(=O)[C@H]([C@@H](C)O)NC(=O)CNC(=O)[C@@H]2CSSC[C@@H]3NC(=O)[C@H](CCC(N)=O)NC(=O)[C@H](Cc4ccccc4)NC(=O)[C@H](C)NC(=O)[C@H]([C@@H](C)O)NC(=O)[C@H](CSSC[C@H](NC(=O)[C@H](Cc4ccccc4)NC(=O)[C@H](CO)NC(=O)[C@H](CC(C)C)NC(=O)[C@H](CCCNC(=N)N)NC(=O)[C@H](Cc4ccc(O)cc4)NC(=O)[C@H](CCCCN)NC(=O)[C@H](CCCCN)NC(=O)[C@H](CO)NC(=O)[C@H](Cc4c[nH]cn4)NC(=O)[C@H](CCCCN)NC3=O)C(=O)N[C@@H](CCCNC(=N)N)C(=O)N[C@@H](CCCCN)C(=O)N[C@@H]([C@@H](C)O)C(=O)N2)NC(=O)[C@H](CCCNC(=N)N)NC(=O)[C@H](CO)NC(=O)[C@H](CCCCN)NC(=O)[C@@H]2CCCN2C(=O)[C@H]([C@@H](C)CC)NC(=O)[C@H]([C@@H](C)O)NC(=O)[C@H](CC(=O)O)NC1=O` [[Lys21]ShK], the values for the IC50 (in test [1]; at hKv1.3; in test [2]) were 3.59 nM, 0.822 nM and 4.82 nM, respectively.

For the compound `CC[C@H](C)[C@@H]1NC(=O)[C@@H](NC(=O)[C@H](CO)NC(=O)[C@@H](N)CCCNC(=N)N)CSSC[C@@H](C(=O)O)NC(=O)[C@H]([C@@H](C)O)NC(=O)CNC(=O)[C@@H]2CSSC[C@@H]3NC(=O)[C@H](CCC(N)=O)NC(=O)[C@H](Cc4ccccc4)NC(=O)[C@H](C)NC(=O)[C@H]([C@@H](C)O)NC(=O)[C@H](CSSC[C@H](NC(=O)[C@H](Cc4ccccc4)NC(=O)[C@H](CO)NC(=O)[C@H](CCCCN)NC(=O)[C@H](CCCNC(=N)N)NC(=O)[C@H](Cc4ccc(O)cc4)NC(=O)[C@H](CCCCN)NC(=O)[C@H](CCSC)NC(=O)[C@H](CO)NC(=O)[C@H](Cc4c[nH]cn4)NC(=O)[C@H](CCCCN)NC3=O)C(=O)N[C@@H](CCCNC(=N)N)C(=O)N[C@@H](CCCCN)C(=O)N[C@@H]([C@@H](C)O)C(=O)N2)NC(=O)[C@H](CCCNC(=N)N)NC(=O)[C@H](CO)NC(=O)[C@H](CCCCN)NC(=O)[C@@H]2CCCN2C(=O)[C@H]([C@@H](C)CC)NC(=O)[C@H]([C@@H](C)O)NC(=O)[C@H](CC(=O)O)NC1=O` [[Lys25]ShK], the IC50 is 0.226 nM in test [1], 0.101 nM against hKv1.3 and 0.366 nM in test [2].

In the case of `CC[C@H](C)[C@@H]1NC(=O)[C@@H](NC(=O)[C@H](CO)NC(=O)[C@@H](N)CCCNC(=N)N)CSSC[C@@H](C(=O)O)NC(=O)[C@H]([C@@H](C)O)NC(=O)CNC(=O)[C@@H]2CSSC[C@@H]3NC(=O)[C@H](CCC(N)=O)NC(=O)[C@H](Cc4ccccc4)NC(=O)[C@H](C)NC(=O)[C@H]([C@@H](C)O)NC(=O)[C@H](CSSC[C@H](NC(=O)[C@H](Cc4ccccc4)NC(=O)[C@H](CCCCN)NC(=O)[C@H](CC(C)C)NC(=O)[C@H](CCCNC(=N)N)NC(=O)[C@H](Cc4ccc(O)cc4)NC(=O)[C@H](CCCCN)NC(=O)[C@H](CCSC)NC(=O)[C@H](CO)NC(=O)[C@H](Cc4c[nH]cn4)NC(=O)[C@H](CCCCN)NC3=O)C(=O)N[C@@H](CCCNC(=N)N)C(=O)N[C@@H](CCCCN)C(=O)N[C@@H]([C@@H](C)O)C(=O)N2)NC(=O)[C@H](CCCNC(=N)N)NC(=O)[C@H](CO)NC(=O)[C@H](CCCCN)NC(=O)[C@@H]2CCCN2C(=O)[C@H]([C@@H](C)CC)NC(=O)[C@H]([C@@H](C)O)NC(=O)[C@H](CC(=O)O)NC1=O` [[Lys26]ShK], the IC50 in test [1] worked out at 0.273 nM; on hKv1.3, 0.115 nM; in test [2], 0.495 nM.

For `CC[C@H](C)[C@@H]1NC(=O)[C@@H](NC(=O)[C@H](CO)NC(=O)[C@@H](N)CCCNC(=N)N)CSSC[C@@H](C(=O)O)NC(=O)[C@H]([C@@H](C)O)NC(=O)CNC(=O)[C@@H]2CSSC[C@@H]3NC(=O)[C@H](CCC(N)=O)NC(=O)[C@H](Cc4ccccc4)NC(=O)[C@H](C)NC(=O)[C@H]([C@@H](C)O)NC(=O)[C@H](CSSC[C@H](NC(=O)[C@H](CCCCN)NC(=O)[C@H](CO)NC(=O)[C@H](CC(C)C)NC(=O)[C@H](CCCNC(=N)N)NC(=O)[C@H](Cc4ccc(O)cc4)NC(=O)[C@H](CCCCN)NC(=O)[C@H](CCSC)NC(=O)[C@H](CO)NC(=O)[C@H](Cc4c[nH]cn4)NC(=O)[C@H](CCCCN)NC3=O)C(=O)N[C@@H](CCCNC(=N)N)C(=O)N[C@@H](CCCCN)C(=O)N[C@@H]([C@@H](C)O)C(=O)N2)NC(=O)[C@H](CCCNC(=N)N)NC(=O)[C@H](CO)NC(=O)[C@H](CCCCN)NC(=O)[C@@H]2CCCN2C(=O)[C@H]([C@@H](C)CC)NC(=O)[C@H]([C@@H](C)O)NC(=O)[C@H](CC(=O)O)NC1=O` [[Lys27]ShK], the half-maximal inhibitory concentration (IC50) in test [1] is 3.48 nM; on hKv1.3, 0.928 nM; in test [2], 11.8 nM.

For the compound `CC[C@H](C)[C@@H]1NC(=O)[C@@H](NC(=O)[C@H](CO)NC(=O)[C@@H](N)CCCNC(=N)N)CSSC[C@@H](C(=O)O)NC(=O)[C@H]([C@@H](C)O)NC(=O)CNC(=O)[C@@H]2CSSC[C@@H]3NC(=O)[C@H](CCC(N)=O)NC(=O)[C@H](Cc4ccccc4)NC(=O)[C@H](C)NC(=O)[C@H]([C@@H](C)O)NC(=O)[C@H](CSSC[C@H](NC(=O)[C@H](Cc4ccccc4)NC(=O)[C@H](CO)NC(=O)[C@H](CC(C)C)NC(=O)[C@H](CCCNC(=N)N)NC(=O)[C@H](Cc4ccc(O)cc4)NC(=O)[C@H](CCCCN)NC(=O)[C@H](CCSC)NC(=O)[C@H](CO)NC(=O)[C@H](Cc4c[nH]cn4)NC(=O)[C@H](CCCCN)NC3=O)C(=O)N[C@@H](CCCCN)C(=O)N[C@@H](CCCCN)C(=O)N[C@@H]([C@@H](C)O)C(=O)N2)NC(=O)[C@H](CCCNC(=N)N)NC(=O)[C@H](CO)NC(=O)[C@H](CCCCN)NC(=O)[C@@H]2CCCN2C(=O)[C@H]([C@@H](C)CC)NC(=O)[C@H]([C@@H](C)O)NC(=O)[C@H](CC(=O)O)NC1=O` [[Lys29]ShK], the values for the IC50 (in test [1]; at hKv1.3; in test [2]) were 0.04 nM, 0.158 nM and 0.071 nM, respectively.

For the compound `CC[C@H](C)[C@@H]1NC(=O)[C@@H](NC(=O)[C@H](CO)NC(=O)[C@@H](N)CCCNC(=N)N)CSSC[C@@H](C(=O)O)NC(=O)[C@H]([C@@H](C)O)NC(=O)CNC(=O)[C@@H]2CSSC[C@@H]3NC(=O)[C@H](CCC(N)=O)NC(=O)[C@H](Cc4ccccc4)NC(=O)[C@H](C)NC(=O)[C@H]([C@@H](C)O)NC(=O)[C@H](CSSC[C@H](NC(=O)[C@H](Cc4ccccc4)NC(=O)[C@H](CO)NC(=O)[C@H](CC(C)C)NC(=O)[C@H](CCCNC(=N)N)NC(=O)[C@H](Cc4ccc(O)cc4)NC(=O)[C@H](CCCCN)NC(=O)[C@H](CCSC)NC(=O)[C@H](CO)NC(=O)[C@H](Cc4c[nH]cn4)NC(=O)[C@H](CCCCN)NC3=O)C(=O)N[C@@H](CCCNC(=N)N)C(=O)N[C@@H](CCCCN)C(=O)N[C@@H](CCCCN)C(=O)N2)NC(=O)[C@H](CCCNC(=N)N)NC(=O)[C@H](CO)NC(=O)[C@H](CCCCN)NC(=O)[C@@H]2CCCN2C(=O)[C@H]([C@@H](C)CC)NC(=O)[C@H]([C@@H](C)O)NC(=O)[C@H](CC(=O)O)NC1=O` [[Lys31]ShK], the IC50 in test [1] was found to be 5.98 nM; on hKv1.3 it was 1.42 nM; in test [2] it was 27.9 nM.

Turning to `CC[C@H](C)[C@@H]1NC(=O)[C@@H](NC(=O)[C@H](CO)NC(=O)[C@@H](N)CCCNC(=N)N)CSSC[C@@H](C(=O)O)NC(=O)[C@H](CCCCN)NC(=O)CNC(=O)[C@@H]2CSSC[C@@H]3NC(=O)[C@H](CCC(N)=O)NC(=O)[C@H](Cc4ccccc4)NC(=O)[C@H](C)NC(=O)[C@H]([C@@H](C)O)NC(=O)[C@H](CSSC[C@H](NC(=O)[C@H](Cc4ccccc4)NC(=O)[C@H](CO)NC(=O)[C@H](CC(C)C)NC(=O)[C@H](CCCNC(=N)N)NC(=O)[C@H](Cc4ccc(O)cc4)NC(=O)[C@H](CCCCN)NC(=O)[C@H](CCSC)NC(=O)[C@H](CO)NC(=O)[C@H](Cc4c[nH]cn4)NC(=O)[C@H](CCCCN)NC3=O)C(=O)N[C@@H](CCCNC(=N)N)C(=O)N[C@@H](CCCCN)C(=O)N[C@@H]([C@@H](C)O)C(=O)N2)NC(=O)[C@H](CCCNC(=N)N)NC(=O)[C@H](CO)NC(=O)[C@H](CCCCN)NC(=O)[C@@H]2CCCN2C(=O)[C@H]([C@@H](C)CC)NC(=O)[C@H]([C@@H](C)O)NC(=O)[C@H](CC(=O)O)NC1=O` [[Lys34]ShK], the concentration for half-maximal inhibition (IC50) in test [1] stood at 0.067 nM; at hKv1.3, 0.15 nM; in test [2], 0.136 nM.
